In patent US20240270762A1, “PENICILLIN-BINDING PROTEIN INHIBITORS” (priority 2021, published 2024):
pIC50: −log10 of the molar value.

Experiments:
[1] = molecular target: T1, PBP3 from Pseudomonas aeruginosa (PAO1) (Pseudomonas aeruginosa, UniProt G3XD46); assay: Bocillin-FL fluorescence polarization competition binding, P. aeruginosa PBP3; conditions: Binding affinity to P. aeruginosa PBP3; fluorescence polarization competition binding assay using Bocillin-FL; read-out: P. aeruginosa PBP3 Potency
T1 construct: made in house
T1 sequence (G3XD46 whole entry): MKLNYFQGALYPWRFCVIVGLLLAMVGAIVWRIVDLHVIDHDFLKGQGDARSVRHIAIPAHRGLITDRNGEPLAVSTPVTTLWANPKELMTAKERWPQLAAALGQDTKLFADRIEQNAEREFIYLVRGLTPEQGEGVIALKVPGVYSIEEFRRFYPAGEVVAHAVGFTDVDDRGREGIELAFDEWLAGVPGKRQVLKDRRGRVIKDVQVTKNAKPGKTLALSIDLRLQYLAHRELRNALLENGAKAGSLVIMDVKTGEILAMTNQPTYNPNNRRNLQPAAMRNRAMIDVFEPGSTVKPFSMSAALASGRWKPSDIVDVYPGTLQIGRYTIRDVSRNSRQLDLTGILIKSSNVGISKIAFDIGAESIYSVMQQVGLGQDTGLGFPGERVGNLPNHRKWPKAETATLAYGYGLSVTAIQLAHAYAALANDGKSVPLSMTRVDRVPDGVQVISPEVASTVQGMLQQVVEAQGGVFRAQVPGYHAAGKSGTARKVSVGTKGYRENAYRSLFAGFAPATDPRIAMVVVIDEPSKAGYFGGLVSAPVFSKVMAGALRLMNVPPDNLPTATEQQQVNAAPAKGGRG
Procedure, shortened: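 Purified PBPs pre-incubated with inhibitor (E. coli PBP3 1.5 μM, 30 min; P. aeruginosa PBP3 0.75 μM, A. baumannii PBP1a 1 μM and PBP3 0.2 μM, 15 min), then Bocillin-FL 0.1 μM (0.05 μM for PBP1a) added; FP read up to 60 min. EC50 = concentration halving bound Bocillin-FL.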

[2] = tested on: A. baumannii CDC-0033; assay: microbe, parasite or virus in culture; assay type: cell-based; conditions: Acinetobacter baumannii, CDC0033, read-out: Minimum inhibitory concentration (MIC), A. baumannii CDC-0033
[3] = tested on: A. baumannii 1258916; assay: microbe, parasite or virus in culture; assay type: cell-based, Acinetobacter baumannii; conditions: Acinetobacter baumannii, 1258916, read-out: Minimum inhibitory concentration (MIC), A. baumannii 1258916
[4] = tested on: P. aeruginosa CDC-0090; assay: microbe, parasite or virus in culture; assay type: cell-based; conditions: Pseudomonas aeruginosa, CDC0090, read-out: Minimum inhibitory concentration, P. aeruginosa CDC-0090
[5] = tested on: A. baumannii ATCC 17978; assay: microbe, parasite or virus in culture; assay type: cell-based; conditions: Acinetobacter baumannii, ATCC17978, read-out: Minimum inhibitory concentration (MIC), A. baumannii ATCC 17978
[6] = tested on: B. humptydooensis ATCC BAA-2767; assay: microbe, parasite or virus in culture; assay type: cell-based; conditions: Burkholderia humptydooensis, ATCCBAA2767, read-out: Minimum inhibitory concentration (MIC), B. humptydooensis ATCC BAA-2767
[7] = tested on: A. baumannii CDC-0036; assay: microbe, parasite or virus in culture; assay type: cell-based; conditions: Acinetobacter baumannii, CDC0036, read-out: Minimum inhibitory concentration (MIC), A. baumannii CDC-0036
[8] = tested on: P. aeruginosa CDC-0054; assay: microbe, parasite or virus in culture; assay type: cell-based; conditions: Pseudomonas aeruginosa, CDC0054, read-out: Minimum inhibitory concentration, P. aeruginosa CDC-0054
[9] = tested on: P. aeruginosa ATCC 35151; assay: microbe, parasite or virus in culture; assay type: cell-based; conditions: Pseudomonas aeruginosa, ATCC35151, read-out: Minimum inhibitory concentration, P. aeruginosa ATCC 35151
[10] = tested on: P. aeruginosa (ΔmexAB-oprM); assay: Broth microdilution MIC in iron-depleted CAMHB (IDM); assay type: cell-based; conditions: Pseudomonas aeruginosa; iron-depleted CAMHB (IDM); […]; read-out: Minimum inhibitory concentration, P. aeruginosa ΔmexAB-oprM

Row | Compound | pIC50 [1] | MIC [2] [µg/mL] | MIC [3] [µg/mL] | MIC [4] [µg/mL] | MIC [5] [µg/mL] | MIC [6] [µg/mL] | MIC [7] [µg/mL] | MIC [8] [µg/mL] | MIC [9] [µg/mL] | MIC [10] [µg/mL]
1 | O=C(O)c1c(F)ccc2c1OB(O)[C@@H](NC(=O)C(NC(=O)N1CCN(S(=O)(=O)c3ccc(O)c(O)c3Cl)C1=O)c1ccc(P(=O)(O)O)cc1)C2 (stereo partly drawn) [Example 505, (3R)-3-(2-(3-((2-chloro-3,4-dihydroxyphenyl)sulfonyl)-2-oxoimidazolidine-1-carboxamido)-2-(4-phosphonophenyl)acetamido)-7-fluoro-2-hydroxy-3,4-dihydro-2H-benzo[e][1,2]oxaborinine-8-carboxylic acid] | > 5.00 | < 1 | < 1 | < 1 | < 1 | < 1 | < 1 | < 1 | < 1 | < 1
2 | O=C(O)c1c(F)ccc2c1OB(O)[C@@H](NC(=O)[C@H](NC(=O)N1CCN(S(=O)(=O)c3ccc(O)c(O)c3Cl)C1=O)c1ccc(P(=O)(O)O)cc1)C2 [Example 506, (R)-3-((R)-2-(3-((2-chloro-3,4-dihydroxyphenyl)sulfonyl)-2-oxoimidazolidine-1-carboxamido)-2-(4-phosphonophenyl)acetamido)-7-fluoro-2-hydroxy-3,4-dihydro-2H-benzo[e][1,2]oxaborinine-8-carboxylic acid] | > 5.00 | < 1 | < 1 | < 1 | < 1 | < 1 | < 1 | < 1 | < 1 | < 1
3 | O=C(O)c1cccc2c1OB(O)[C@@H](NC(=O)[C@H](NC(=O)N1CCN(S(=O)(=O)c3ccc(O)c(O)c3Cl)C1=O)c1ccc(P(=O)(O)O)cc1)C2 [Example 509, (R)-3-((R)-2-(3-((2-chloro-3,4-dihydroxyphenyl)sulfonyl)-2-oxoimidazolidine-1-carboxamido)-2-(4-phosphonophenyl)acetamido)-2-hydroxy-3,4-dihydro-2H-benzo[e][1,2]oxaborinine-8-carboxylic acid] | > 5.00 | < 1 | < 1 | < 1 | < 1 | < 1 | < 1 | < 1 | < 1 | < 1
